{"source": "patent US20090093633A1", "about": "“Organic Compounds” (Novartis AG, priority 2006, published 2009)", "note": "Where a name gives a salt, the structure may show the parent alone.", "data": [{"target": "adenosine A2A receptor (Homo sapiens, UniProt P29274)", "sequence (P29274 whole entry)": "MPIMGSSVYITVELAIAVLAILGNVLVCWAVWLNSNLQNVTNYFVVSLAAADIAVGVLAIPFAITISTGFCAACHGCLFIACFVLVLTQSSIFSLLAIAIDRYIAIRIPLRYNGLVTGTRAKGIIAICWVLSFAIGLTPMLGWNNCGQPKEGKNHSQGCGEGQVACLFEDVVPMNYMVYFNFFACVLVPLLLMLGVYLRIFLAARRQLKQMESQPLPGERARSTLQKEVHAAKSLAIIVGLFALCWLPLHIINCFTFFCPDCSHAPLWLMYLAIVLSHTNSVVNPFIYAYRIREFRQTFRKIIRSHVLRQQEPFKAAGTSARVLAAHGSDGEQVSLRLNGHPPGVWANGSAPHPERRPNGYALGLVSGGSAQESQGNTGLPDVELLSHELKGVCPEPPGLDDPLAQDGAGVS", "test": "adenosine A2A receptor agonist assay (method of Murphree et al, Molecular Pharmacology 61, 455-462 (2002))", "assay_type": "binding", "settings": "method of L. J. Murphree et al, Mol. Pharmacol. 61, 455-462 (2002)", "description": "Compounds of formula I and their pharmaceutically acceptable salts are useful as pharmaceuticals. In particular, they activate the adenosine A2A receptor, i.e. they act as A2A receptor agonists.", "units": {"Ki": "nM"}, "values": [{"smiles": "O=C(NC1CCN(c2ccc(C(=O)O)cn2)CC1)N[C@@H]1CCN(c2nc(NCC(c3ccccc3)c3ccccc3)c3ncn([C@@H]4C[C@H](n5cc(CO)cn5)[C@@H](O)[C@H]4O)c3n2)C1", "note": "[Example 86, 4-(3-{(R)-1-[9-[(1R,2S,3R,4S)-2,3-Dihydroxy-4-(4-hydroxymethyl-pyrazol-1-yl)-cyclopentyl]-6-(2,2-diphenyl-ethylamino)-9H-purin-2-yl]-pyrrolidin-3-yl}-ureido)-3,4,5,6-tetrahydro-2H-[1,2′]bipyridinyl-5′-carboxylic acid trifluoroacetate]", "Ki": 40}, {"smiles": "O=C(NC1CCN(c2ccccn2)CC1)N[C@@H]1CCN(c2nc(NCC(c3ccccc3)c3ccccc3)c3ncn([C@@H]4C[C@H](n5cc(CO)cn5)[C@@H](O)[C@H]4O)c3n2)C1", "note": "[Example 77, 1-{(R)-1-[9-[(1R,2S,3R,4S)-2,3-Dihydroxy-4-(4-hydroxymethyl-pyrazol-1-yl)-cyclopentyl]-6-(2,2-diphenyl-ethylamino)-9H-purin-2-yl]-pyrrolidin-3-yl}-3-(3,4,5,6-tetrahydro-2H-[1,2′]bipyridinyl-4-yl)-urea trifluoroacetate]", "Ki": 20}, {"smiles": "CCc1nnn([C@H]2C[C@@H](n3cnc4c(NCC(c5ccccc5)c5ccccc5)nc(N5CC[C@@H](NC(=O)NC6CCN(c7ccccn7)CC6)C5)nc43)[C@H](O)[C@@H]2O)n1", "note": "[Example 45, 1-((R)-1-{6-(2,2-Diphenyl-ethylamino)-9-[(1R,2S,3R,4S)-4-(5-ethyl-tetrazol-2-yl)-2,3-dihydroxy-cyclopentyl]-9H-purin-2-yl}-pyrrolidin-3-yl)-3-(3,4,5,6-tetrahydro-2H-[1,2′]bipyridinyl-4-yl)-urea]", "Ki": 17}, {"smiles": "CCc1nnn([C@H]2C[C@@H](n3cnc4c(NCC(c5ccccc5)c5ccccc5)nc(N5CC[C@@H](NC(=O)NCc6ccnc7ccccc67)C5)nc43)[C@H](O)[C@@H]2O)n1", "note": "[Example 150, 1-((R)-1-{6-(2,2-Diphenyl-ethylamino)-9-[(1R,2S,3R,4S)-4-(5-ethyl-tetrazol-2-yl)-2,3-dihydroxy-cyclopentyl]-9H-purin-2-yl}-pyrrolidin-3-yl)-3 quinolin-4-ylmethyl-urea hydrochloride]", "Ki": 6}, {"smiles": "CCCCC#Cc1nc(N)c2ncn([C@@H]3C[C@H](n4cc(CC)cn4)[C@@H](O)[C@H]3O)c2n1", "note": "[Example 37, (1R,2S,3R,5S)-3-(6-Amino-2-hex-1-ynyl-purin-9-yl)-5-(4-ethyl-pyrazol-1-yl)-cyclopentane-1,2-diol]", "Ki": 121}, {"smiles": "CCc1cnn([C@H]2C[C@@H](n3cnc4c(NCC(c5ccccc5)c5ccccc5)nc(N5CC[C@@H](NC(=O)Nc6ccncc6)C5)nc43)[C@H](O)[C@@H]2O)n1", "note": "[Example 127, 1-((R)-1-{6-(2,2-Diphenyl-ethylamino)-9-[(1R,2S,3R,4S)-4-(4-ethyl-[1,2,3]triazol-2-yl)-2,3-dihydroxy-cyclopentyl]9H-purin-2-yl}-pyrrolidin-3-yl)-3-pyridin-4-yl-urea hydrochloride]", "Ki": 3}, {"smiles": "Cc1cnn([C@H]2C[C@@H](n3cnc4c(N)nc(N[C@@H]5CCC[C@H]5OCc5ccccc5)nc43)[C@H](O)[C@@H]2O)c1", "note": "[Example 22, (1R,2S,3R,5S)-3-[6-Amino-2-((1R,2R)-2-benzyloxy-cyclopentylamino)-purin-9-yl]-5-(4-methyl-pyrazol-1-yl)-cyclopentane-1,2-diol]", "Ki": 138}, {"smiles": "CN(C)[C@@H]1CCN(c2nc(NCC(c3ccccc3)c3ccccc3)c3ncn([C@@H]4C[C@H](n5cc(CO)cn5)[C@@H](O)[C@H]4O)c3n2)C1", "note": "[Example 96, (1R,2S,3R,5S)-3-[2-((R)-3-Dimethylamino-pyrrolidin-1-yl)-6-(2,2-diphenyl-ethylamino)-purin-9-yl]-5-(4-hydroxymethyl-pyrazol-1-yl)-cyclopentane-1,2-diol]", "Ki": 2}, {"smiles": "Cc1cnn([C@H]2C[C@@H](n3cnc4c(NCC(c5ccccc5)c5ccccc5)nc(NC5CCC(N)CC5)nc43)[C@H](O)[C@@H]2O)c1", "note": "(stereo partly drawn) [Example 1, (1R,2S,3R,5S)-3-[2-(4-Amino-cyclohexylamino)-6-(2,2-diphenyl-ethylamino)-purin-9-yl]-5-(4-methyl-pyrazol-1-yl)-cyclopentane-1,2-diol trifluoroacetate]", "Ki": 197}, {"smiles": "CCc1cnn([C@H]2C[C@@H](n3cnc4c(NCCc5ccccc5)nc(NCCc5cn(CC)cn5)nc43)[C@H](O)[C@@H]2O)c1", "note": "[Example 54, (1R,2S,3R,5S)-3-{2-[2-(1-Ethyl-1H-imidazol-4-yl)-ethylamino]-6-phenethylamino-purin-9-yl}-5-(4-ethyl-pyrazol-1-yl)-cyclopentane-1,2-diol]", "Ki": 72}, {"smiles": "CCc1nnn([C@H]2C[C@@H](n3cnc4c(NCC(c5ccccc5)c5ccccc5)nc(N5CC[C@@H](NC(=O)Nc6cccc(-c7nnn[nH]7)c6)C5)nc43)[C@H](O)[C@@H]2O)n1", "note": "[Example 157, 1-((R)-1-{6-(2,2-Diphenyl-ethylamino)-9-[(1R,2S,3R,4S)-4-(5-ethyl-tetrazol-2-yl)-2,3-dihydroxy-cyclopentyl]-9H-purin-2-yl}-pyrrolidin-3-yl)-3-[3-(1H-tetrazol-5-yl)-phenyl]-urea hydrochloride]", "Ki": 3}, {"smiles": "O=C(N[C@@H]1CCNC1)c1nc(NCC(c2ccccc2)c2ccccc2)c2ncn([C@@H]3C[C@H](n4cc(CO)cn4)C(O)C3O)c2n1", "note": "(stereo partly drawn) [Example 64, 9-[(1R,4S)-2,3-Dihydroxy-4-(4-hydroxymethyl-pyrazol-1-yl)-cyclopentyl]-6-(2,2-diphenyl-ethylamino)-9H-purine-2-carboxylic acid (R)pyrrolidin-3-yl amide]", "Ki": 49}, {"smiles": "CCn1cnc(CCNc2nc(NCC(c3ccccc3)c3ccccc3)c3ncn([C@@H]4C[C@H](n5cc(CO)cn5)[C@@H](O)[C@H]4O)c3n2)c1", "note": "[Example 47, (1R,2S,3R,5S)-3-{6-(2,2-Diphenyl-ethylamino)-2-[2-(1-ethyl-1H-imidazol-4-yl)-ethylamino]-purin-9-yl}-5-(4-hydroxymethyl-pyrazol-1-yl)-cyclopentane-1,2-diol]", "Ki": 10}, {"smiles": "CCc1nnn([C@H]2C[C@@H](n3cnc4c(NCC(c5ccc(O)cc5)c5ccc(O)cc5)nc(N5CC[C@@H](NC(=O)Nc6ccncc6)C5)nc43)[C@H](O)[C@@H]2O)n1", "note": "[Example 109, 1-((R)-1-{6-[2,2-Bis-(4-hydroxy-phenyl)-ethylamino]-9-[(1R,2S,3R,4S)-4-(5-ethyl-tetrazol-2-yl)-2,3-dihydroxy-cyclopentyl]-9H-purin-2-yl}-pyrrolidin-3-yl)-3-pyridin-4-yl-urea hydrochloride]", "Ki": 5}, {"smiles": "Cc1cnn([C@H]2C[C@@H](n3cnc4c(NCC(c5ccccc5)c5ccccc5)nc(NCCc5cnc[nH]5)nc43)[C@H](O)[C@@H]2O)c1", "note": "[Example 4, (1R,2S,3R,5S)-3-{6-(2,2-Diphenyl-ethylamino)-2-[2-(3H-imidazol-4-yl)-ethylamino]-purin-9-yl}-5-(4-methyl-pyrazol-1-yl)-cyclopentane-1,2-diol]", "Ki": 172}, {"smiles": "Cc1nnn([C@H]2C[C@@H](n3cnc4c(NCC(c5ccccc5)c5ccccc5)nc(N5CC[C@@H](NS(C)(=O)=O)C5)nc43)[C@H](O)[C@@H]2O)n1", "note": "[Example 67, N-{(R)-1-[9-[(1R,2S,3R,4S)-2,3-Dihydroxy-4-(5-methyl-tetrazol-2-yl)-cyclopentyl]-6-(2,2-diphenyl-ethylamino)-9H-purin-2-yl]pyrrolidin-3-yl}-methanesulfonamide]", "Ki": 71}, {"smiles": "NC1CCC(Nc2nc(NCC(c3ccccc3)c3ccccc3)c3ncn([C@@H]4C[C@H](n5cccn5)[C@@H](O)[C@H]4O)c3n2)CC1", "note": "(stereo partly drawn) [Example 12, (1R,2S,3R,5S)-3-[2-(4-Amino-cyclohexylamino)-6-(2,2-diphenyl-ethylamino)-purin-9-yl]-5-pyrazol-1-yl-cyclopentane-1,2-diol]", "Ki": 272}, {"smiles": "CCCCC#Cc1nc(N)c2ncn([C@@H]3C[C@H](n4cc(CO)cn4)[C@@H](O)[C@H]3O)c2n1", "note": "[Example 40, (1R,2S,3R,5S)-3-(6-Amino-2-hex-1-ynyl-purin-9-yl)-5-(4-hydroxymethyl-pyrazol-1-yl)-cyclopentane-1,2-diol]", "Ki": 67}]}]}
